According to patent US20030162778A1, “Carbocyclic side chain containing metalloprotease inhibitors” (The Procter and Gamble Company, priority 2000, published 2003):

How the values were obtained:
[1] = system: patient having deep corneal abrasion; test: Example C: saline-based drops for a patient having deep corneal abrasion; format: in vivo, human; settings: 5% w/w drop to each eye twice a day
Text: A saline-based composition for local administration, according to the present invention, is made comprising:
A patient having deep corneal abrasion applies the drop to each eye twice a day.

[2] = system: human subject suffering from osteoarthritis; test: Example B: capsule given to a human subject suffering from osteoarthritis; format: in vivo; settings: capsule containing 70 mg daily for 5 years, 90 kg person
Experimental: A capsule for oral administration, according to the present invention, is made comprising:
A human subject weighing 90 kg (198 lbs.), suffering from osteoarthritis, is treated by a method of this invention. Specifically, for 5 years, a capsule containing 70 mg of the compound of Example 3 is administered daily to said subject.

[3] = system: patient suffering from chemical burns; test: Example D: topical composition for a patient suffering from chemical burns; format: in vivo, human; settings: 0.20% w/v topical composition at each dressing change (b.i.d.)
Text: A topical composition for local administration, according to the present invention, is made comprising:
A patient suffering from chemical burns applies the composition at each dressing change (b.i.d.).

[4] = system: human subject with a premetastatic tumor; test: Example G: parenteral suspension injected next to a premetastatic tumor; format: in vivo; settings: about 2.0 mL of 100 mg/mL suspension injected beside the tumor twice daily; after 30 days
Experimental: A composition for parenteral administration is made comprising:
The above ingredients are mixed, forming a suspension. Approximately 2.0 mL of the suspension is administered, via injection, to a human subject with a premetastatic tumor. The injection site juxtaposes the tumor. This dosage is repeated twice daily, for approximately 30 days.

[5] = system: human subject suffering from rheumatoid arthritis; test: Example A: tablet given to a human subject suffering from rheumatoid arthritis; format: in vivo; settings: three tablets (15 mg compound each) per day orally for 2 years, 60 kg person
Experimental: A tablet composition for oral administration, according to the present invention, is made comprising:
A human subject weighing 60 kg (132 lbs), suffering from rheumatoid arthritis, is treated by a method of this invention. Specifically, for 2 years, a regimen of three tablets per day is administered orally to said subject.

asthma sufferer = test: Example E: inhalation aerosol for an asthma sufferer; format: in vivo, human; settings: 5.0% w/v aerosol, 0.01 mL sprayed into the mouth while inhaling
Experimental: An inhalation aerosol composition, according to the present invention, is made comprising: [table] An asthma sufferer sprays 0.01 mL via a pump actuator into the mouth while inhaling. Asthma symptoms are diminished.

COc1ccc(-c2ccc(S(=O)(=O)NC(C(=O)O)C3CCC(O)CC3)cc2)cc1 (centres unmarked) [Example 1, N-{[4′-Methoxy-(1,1′-biphenyl)-4-yl]-sulfonylamino}-(4-hydroxycyclohexan-1-yl)-acetic Acid]
healing of deep corneal abrasion [1]: speeded
visual sequelae [1]: no visual sequelae

O=C(O)[C@H](NS(=O)(=O)c1ccc(-c2ccc(Br)cc2)cc1)C1CCC2(CC1)OCCCO2 [Example 3, (R)-N-{[4′-bromo-(1,1′-biphenyl)-4-yl]-sulfonyl}-amino-(1,5-dioxa-spiro[5.5]undec-9-yl)-acetic]
advancement of erosion/fibrillation of the articular cartilage (x-ray, arthroscopy and/or MRI) [2]: no further advancement
scarring [3]: substantially diminished

COc1ccc(-c2ccc(S(=O)(=O)NC(C(=O)O)C3CCCC(N(Cc4ccccc4)S(C)(=O)=O)C3)cc2)cc1 (centres unmarked) [Example 31, N-{[4′-methoxy-(1,1′-biphenyl)-4-yl]-sulfonyl}-amino-[3-(N-benzyl-N-methanesulfonylamino)-cyclohexan-1-yl]-acetic acid]
symptoms of the disease [4]: subside
inflammation at the end of the treatment period [5]: reduced inflammation
mobility at the end of the treatment period [5]: improved mobility without concomitant pain

COc1ccc(-c2ccc(S(=O)(=O)NC(C(=O)O)C3CCCC(N(C)C(C)=O)C3)cc2)cc1 (centres unmarked) [Example 33, N-{[4′-methoxy-(1,1-biphenyl)-4-yl]-sulfonyl}-amino-[3-(N-methyl-N-acetylamino)-cyclohexan-1-yl]-acetic Acid]
asthma symptoms (asthma sufferer): diminished
